What all share (type): biochemical
Test [1] deals with T1, PI3K β (p110β/p85α) (Homo sapiens, UniProt P42338).
T1 construct: purchased Upstate / Millipore Corporation
The test can be described thus: PI 3-Kinase (human) HTRF assay, PI3K β. Conditions: read-out: PI3K β IC50.

Test [2] addresses T2, PI3K α (p110α/p85α) (Homo sapiens, UniProt P42336).
T2 construct: purchased Upstate / Millipore Corporation
The test is described as follows: PI 3-Kinase (human) HTRF assay, PI3K α. The following applies: read-out: PI3K α IC50.

In test [3] the target is T3, PI3K δ (Homo sapiens, UniProt O00329).
T3 construct: purchased Upstate / Millipore Corporation
T3 sequence (O00329 whole entry): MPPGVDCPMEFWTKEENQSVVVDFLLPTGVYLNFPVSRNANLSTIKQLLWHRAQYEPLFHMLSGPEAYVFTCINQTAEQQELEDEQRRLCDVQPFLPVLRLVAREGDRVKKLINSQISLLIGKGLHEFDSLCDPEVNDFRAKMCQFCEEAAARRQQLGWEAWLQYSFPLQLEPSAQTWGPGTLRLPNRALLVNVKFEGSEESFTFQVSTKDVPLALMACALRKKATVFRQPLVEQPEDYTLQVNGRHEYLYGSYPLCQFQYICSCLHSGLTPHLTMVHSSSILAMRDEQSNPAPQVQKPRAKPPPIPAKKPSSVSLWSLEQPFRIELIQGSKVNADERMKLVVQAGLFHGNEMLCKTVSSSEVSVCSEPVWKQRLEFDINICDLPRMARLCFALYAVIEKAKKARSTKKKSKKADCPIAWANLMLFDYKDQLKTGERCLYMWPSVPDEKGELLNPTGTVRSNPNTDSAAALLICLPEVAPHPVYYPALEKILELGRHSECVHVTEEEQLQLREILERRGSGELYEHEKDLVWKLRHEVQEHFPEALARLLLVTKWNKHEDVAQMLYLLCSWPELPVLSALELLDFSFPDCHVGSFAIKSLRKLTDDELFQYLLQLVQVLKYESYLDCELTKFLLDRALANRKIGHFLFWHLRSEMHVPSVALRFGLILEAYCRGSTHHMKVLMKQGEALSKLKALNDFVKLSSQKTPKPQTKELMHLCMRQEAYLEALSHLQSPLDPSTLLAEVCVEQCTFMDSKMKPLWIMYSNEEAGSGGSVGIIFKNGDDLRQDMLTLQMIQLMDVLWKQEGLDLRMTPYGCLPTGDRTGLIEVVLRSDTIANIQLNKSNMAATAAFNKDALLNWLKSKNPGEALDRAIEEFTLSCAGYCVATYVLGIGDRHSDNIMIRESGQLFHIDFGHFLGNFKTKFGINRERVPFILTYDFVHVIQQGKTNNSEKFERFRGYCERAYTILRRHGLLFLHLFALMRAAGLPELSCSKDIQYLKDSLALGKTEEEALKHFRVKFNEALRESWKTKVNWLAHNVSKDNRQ
T3 sequence (P27986 whole entry partner): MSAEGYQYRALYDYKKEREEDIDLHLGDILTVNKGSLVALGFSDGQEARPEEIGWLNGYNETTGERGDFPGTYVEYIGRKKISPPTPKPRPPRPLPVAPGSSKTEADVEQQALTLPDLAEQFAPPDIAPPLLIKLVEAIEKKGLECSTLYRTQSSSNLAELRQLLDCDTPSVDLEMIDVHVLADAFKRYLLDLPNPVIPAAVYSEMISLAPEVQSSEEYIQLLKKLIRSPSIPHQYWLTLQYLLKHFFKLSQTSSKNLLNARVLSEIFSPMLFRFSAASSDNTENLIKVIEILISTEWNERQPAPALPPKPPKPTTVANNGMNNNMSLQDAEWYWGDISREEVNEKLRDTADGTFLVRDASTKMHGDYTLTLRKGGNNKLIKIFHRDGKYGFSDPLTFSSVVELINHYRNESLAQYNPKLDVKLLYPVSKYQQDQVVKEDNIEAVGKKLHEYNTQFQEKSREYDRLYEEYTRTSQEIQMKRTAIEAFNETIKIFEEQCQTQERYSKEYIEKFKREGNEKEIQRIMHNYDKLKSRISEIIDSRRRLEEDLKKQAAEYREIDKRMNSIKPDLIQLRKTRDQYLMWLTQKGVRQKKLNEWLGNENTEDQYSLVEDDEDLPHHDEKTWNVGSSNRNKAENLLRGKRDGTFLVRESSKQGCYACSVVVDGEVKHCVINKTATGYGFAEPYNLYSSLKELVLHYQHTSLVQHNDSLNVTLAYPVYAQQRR
The test can be described thus: PI 3-Kinase (human) HTRF assay, PI3K δ. The following applies: read-out: PI3K δ IC50. (Time-resolved FRET reads energy transfer from a long-lived donor to a nearby acceptor.)

For test [4], the target named is T4, PI3K γ (p110γ) (Homo sapiens, UniProt P48736).
T4 construct: purchased Upstate / Millipore Corporation
T4 sequence (P48736 whole entry): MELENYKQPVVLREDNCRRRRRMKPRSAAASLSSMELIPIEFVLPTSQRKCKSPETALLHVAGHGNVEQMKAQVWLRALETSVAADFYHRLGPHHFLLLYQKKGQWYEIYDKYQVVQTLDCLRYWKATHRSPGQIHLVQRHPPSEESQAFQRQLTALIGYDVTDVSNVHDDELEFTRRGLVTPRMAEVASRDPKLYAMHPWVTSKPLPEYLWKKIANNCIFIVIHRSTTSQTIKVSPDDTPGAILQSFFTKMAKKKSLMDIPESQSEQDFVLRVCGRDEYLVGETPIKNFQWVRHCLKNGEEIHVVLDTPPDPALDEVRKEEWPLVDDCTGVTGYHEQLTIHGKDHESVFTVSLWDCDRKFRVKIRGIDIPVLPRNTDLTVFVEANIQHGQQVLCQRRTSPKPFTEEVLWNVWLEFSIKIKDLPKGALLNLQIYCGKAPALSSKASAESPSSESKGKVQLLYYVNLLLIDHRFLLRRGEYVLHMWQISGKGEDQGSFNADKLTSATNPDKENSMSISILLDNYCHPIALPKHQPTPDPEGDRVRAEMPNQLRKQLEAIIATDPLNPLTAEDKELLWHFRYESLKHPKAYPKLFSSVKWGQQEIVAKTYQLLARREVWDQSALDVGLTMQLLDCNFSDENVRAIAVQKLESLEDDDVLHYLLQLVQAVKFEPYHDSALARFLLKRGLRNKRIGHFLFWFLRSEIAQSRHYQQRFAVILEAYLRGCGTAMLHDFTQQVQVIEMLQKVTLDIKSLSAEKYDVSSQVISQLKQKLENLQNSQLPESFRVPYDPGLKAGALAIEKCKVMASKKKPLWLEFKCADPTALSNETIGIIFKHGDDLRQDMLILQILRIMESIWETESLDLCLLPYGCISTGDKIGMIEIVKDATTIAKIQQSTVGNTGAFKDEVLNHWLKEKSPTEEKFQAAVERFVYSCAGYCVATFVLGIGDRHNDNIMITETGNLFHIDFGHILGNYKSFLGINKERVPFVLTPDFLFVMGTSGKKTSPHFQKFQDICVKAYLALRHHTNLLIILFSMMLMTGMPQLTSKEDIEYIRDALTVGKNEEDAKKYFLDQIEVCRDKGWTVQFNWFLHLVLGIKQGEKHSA
The test is described as follows: PI 3-Kinase (human) HTRF assay, PI3K γ. Conditions: read-out: PI3K γ IC50.

Results on 39 compounds are retold here after patent US20150087627A1, “COMBINATION OF KINASE INHIBITORS AND USES THEREOF” (Intellikine LLC, priority 2011, published 2015).

One may read the IC50 as the concentration at which inhibition is half-maximal.

T1 sequence (P42338 whole entry): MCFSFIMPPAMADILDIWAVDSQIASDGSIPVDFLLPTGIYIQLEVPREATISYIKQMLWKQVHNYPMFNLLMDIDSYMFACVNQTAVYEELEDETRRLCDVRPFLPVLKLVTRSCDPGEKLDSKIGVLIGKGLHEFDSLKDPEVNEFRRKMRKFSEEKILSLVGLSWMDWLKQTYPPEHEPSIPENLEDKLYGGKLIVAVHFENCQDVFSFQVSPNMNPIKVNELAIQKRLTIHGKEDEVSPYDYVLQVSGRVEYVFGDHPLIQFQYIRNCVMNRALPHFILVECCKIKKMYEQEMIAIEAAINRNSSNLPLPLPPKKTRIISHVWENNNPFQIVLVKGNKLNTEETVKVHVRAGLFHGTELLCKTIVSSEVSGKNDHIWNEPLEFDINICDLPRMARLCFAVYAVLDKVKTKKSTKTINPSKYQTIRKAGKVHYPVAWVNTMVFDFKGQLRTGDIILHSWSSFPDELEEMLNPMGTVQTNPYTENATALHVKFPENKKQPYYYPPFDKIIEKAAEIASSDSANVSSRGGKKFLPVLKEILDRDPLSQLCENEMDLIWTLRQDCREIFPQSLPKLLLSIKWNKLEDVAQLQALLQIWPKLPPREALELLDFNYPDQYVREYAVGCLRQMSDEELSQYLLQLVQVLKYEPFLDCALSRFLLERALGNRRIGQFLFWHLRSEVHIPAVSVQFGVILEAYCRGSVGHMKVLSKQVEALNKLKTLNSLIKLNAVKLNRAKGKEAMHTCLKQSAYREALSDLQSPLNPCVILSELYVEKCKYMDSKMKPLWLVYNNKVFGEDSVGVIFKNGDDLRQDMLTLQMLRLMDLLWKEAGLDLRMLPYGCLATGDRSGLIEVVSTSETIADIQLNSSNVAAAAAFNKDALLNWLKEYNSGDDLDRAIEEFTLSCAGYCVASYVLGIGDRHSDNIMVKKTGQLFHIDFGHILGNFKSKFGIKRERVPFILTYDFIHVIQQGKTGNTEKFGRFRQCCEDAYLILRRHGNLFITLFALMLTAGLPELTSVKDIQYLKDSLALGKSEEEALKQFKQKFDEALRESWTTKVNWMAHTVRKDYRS
T1 sequence (P27986 whole entry partner): as the sequence (P27986 whole entry partner) above
T2 sequence (P42336 whole entry): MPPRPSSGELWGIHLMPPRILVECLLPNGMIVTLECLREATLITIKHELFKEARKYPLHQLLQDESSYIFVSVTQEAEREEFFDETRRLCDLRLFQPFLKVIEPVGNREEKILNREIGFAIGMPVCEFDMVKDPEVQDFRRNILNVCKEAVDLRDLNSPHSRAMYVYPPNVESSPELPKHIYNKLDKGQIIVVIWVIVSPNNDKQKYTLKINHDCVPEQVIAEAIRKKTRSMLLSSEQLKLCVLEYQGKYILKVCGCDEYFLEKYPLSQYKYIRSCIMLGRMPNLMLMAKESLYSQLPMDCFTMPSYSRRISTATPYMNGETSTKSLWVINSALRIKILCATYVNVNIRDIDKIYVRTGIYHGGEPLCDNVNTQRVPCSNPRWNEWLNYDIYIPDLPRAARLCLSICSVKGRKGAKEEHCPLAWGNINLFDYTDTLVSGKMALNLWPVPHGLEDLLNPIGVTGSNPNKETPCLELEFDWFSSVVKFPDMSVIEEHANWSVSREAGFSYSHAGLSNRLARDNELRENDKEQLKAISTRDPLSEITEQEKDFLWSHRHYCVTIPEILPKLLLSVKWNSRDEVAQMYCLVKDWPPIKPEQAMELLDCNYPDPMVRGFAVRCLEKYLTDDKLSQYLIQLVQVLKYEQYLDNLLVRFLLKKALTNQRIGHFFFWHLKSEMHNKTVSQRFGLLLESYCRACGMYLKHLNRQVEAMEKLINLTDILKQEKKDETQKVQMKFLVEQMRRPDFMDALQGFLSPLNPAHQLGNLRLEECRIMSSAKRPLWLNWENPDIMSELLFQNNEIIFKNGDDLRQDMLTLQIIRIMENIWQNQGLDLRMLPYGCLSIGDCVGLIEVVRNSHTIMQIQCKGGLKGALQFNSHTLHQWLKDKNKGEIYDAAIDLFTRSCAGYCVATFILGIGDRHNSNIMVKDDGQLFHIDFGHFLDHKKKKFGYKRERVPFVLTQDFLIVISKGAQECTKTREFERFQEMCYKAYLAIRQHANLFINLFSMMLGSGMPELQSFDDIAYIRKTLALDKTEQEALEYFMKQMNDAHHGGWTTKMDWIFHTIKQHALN
T2 sequence (P27986 whole entry partner): as the sequence (P27986 whole entry partner) above

Turning to `CC(=O)Nc1nc2cc(-c3ccc4oc(N)nc4c3)ccc2s1` [Compound 250], the IC50 in test [1] is > 10 µM; in test [2], > 10 µM; in test [3], > 10 µM; in test [4], < 0.1 µM.

In the case of `CC(=O)Nc1nc2cc(-c3ccc4nc(N)oc4c3)ccc2s1` [Compound 251], the IC50 in test [1], in test [2], in test [3] and in test [4] was < 0.1 µM throughout.

Turning to `Nc1nc2cc(-c3ccc4ncc(N5CC(C(=O)N6CCOCC6)C5)nc4c3)ccc2o1` [Compound 252], the IC50 in test [1] was < 10 µM; in test [2], > 10 µM; in test [3] it was < 10 µM; in test [4], < 10 µM.

As to `CN1CCN(C(=O)C2CN(c3cnc4ccc(-c5ccc6oc(N)nc6c5)cc4n3)C2)CC1` [Compound 253], the IC50 in test [1] is < 10 µM; in test [2] it was > 10 µM; in test [3], < 10 µM; in test [4] it was < 10 µM.

On to `Nc1nc2cc(-c3ccc4ncn(C5CC5)c(=O)c4c3)ccc2o1` [Compound 254], for which the IC50 was > 10 µM in test [1], < 1 µM in test [2], > 10 µM in test [3] and < 1 µM in test [4].

On to `Nc1nc2cc(-c3ccc4ncn(CCN5CCCC5)c(=O)c4c3)ccc2o1` [Compound 255], for which the concentration for half-maximal inhibition (IC50) in test [1], in test [2], in test [3] and in test [4] was < 10 µM each time.

With `Nc1nc2cc(-c3ccc4ncn(C5CCCC5)c(=O)c4c3)ccc2o1` [Compound 256], the IC50 is > 10 µM in test [1], < 10 µM in test [2], > 10 µM in test [3] and > 10 µM in test [4].

In the case of `NC(=O)[C@@H]1CCCN1c1cnc2ccc(-c3ccc4oc(N)nc4c3)cc2n1` [Compound 257], the IC50 is > 10 µM in test [1], < 0.1 µM in test [2], > 10 µM in test [3] and > 10 µM in test [4].

As to `NC(=O)[C@@H]1CCCN1C(=O)c1cnc2ccc(-c3ccc4oc(N)nc4c3)cn12` [Compound 259], the IC50 is > 10 µM in test [1], < 1 µM in test [2], > 10 µM in test [3] and < 10 µM in test [4].

For `Nc1nc2cc(-c3ccc4ncc(C(=O)N5CCN(C6CC6)CC5)n4c3)ccc2o1` [Compound 263], the half-maximal inhibitory concentration (IC50) in test [1] was < 10 µM; in test [2] it was < 0.1 µM; in test [3], < 10 µM; in test [4], < 10 µM.

Take `Nc1nc2cc(-c3ccc4ncc(C(=O)N5CC(N6CCOCC6)C5)n4c3)ccc2o1` [Compound 266]: the IC50 in test [1] is < 10 µM; in test [2] it was < 0.1 µM; in test [3], < 1 µM; in test [4] it was < 1 µM.

For the compound `C[C@H]1CN(C(=O)C2CN(c3cnc4ccc(-c5ccc6oc(N)nc6c5)cc4n3)C2)CCN1` [Compound 268], the IC50 in test [1] is < 10 µM; in test [2], < 0.1 µM; in test [3], < 10 µM; in test [4] it was < 1 µM.

Regarding `Nc1nc2cc(-c3ccc4ncn(CCCN5CCCC5)c(=O)c4c3)ccc2o1` [Compound 271], the IC50 in test [1] is < 10 µM; in test [2], < 1 µM; in test [3] it was < 10 µM; in test [4] it was > 10 µM.

For `COCCn1cnc2ccc(-c3ccc4oc(N)nc4c3)cc2c1=O` [Compound 272], the half-maximal inhibitory concentration (IC50) in test [1] was < 10 µM; in test [2], < 1 µM; in test [3], > 10 µM; in test [4] it was < 10 µM.

With `CN1CCN(CCNc2cnc3ccc(-c4ccc5oc(N)nc5c4)cc3n2)CC1` [Compound 275], the IC50 in test [1] is < 1 µM; in test [2], < 0.1 µM; in test [3], < 1 µM; in test [4] it was < 1 µM.

Turning to `Nc1nc2cc(-c3ccc4ncc(N5CCN(C(=O)CN6CCCC6)CC5)nc4c3)ccc2o1` [Compound 278], the IC50 in test [1] is < 1 µM; in test [2], < 0.1 µM; in test [3], < 10 µM; in test [4] it was < 1 µM.

In the case of `CCN(CC)CC(=O)N1CCN(c2cnc3ccc(-c4ccc5oc(N)nc5c4)cc3n2)CC1` [Compound 279], the IC50 is < 10 µM in test [1], < 0.1 µM in test [2], < 10 µM in test [3] and < 10 µM in test [4].

For the compound `CN1CCN(CCn2cnc3ccc(-c4ccc5oc(N)nc5c4)cc3c2=O)CC1` [Compound 280], the IC50 was > 10 µM in test [1], < 10 µM in test [2], > 10 µM in test [3] and > 10 µM in test [4].

Consider `CC(C)N1CCN(C(=O)C2CN(c3cnc4ccc(-c5ccc6oc(N)nc6c5)cc4n3)C2)CC1` [Compound 285], for which the concentration for half-maximal inhibition (IC50) in test [1] was < 10 µM; in test [2], < 0.1 µM; in test [3], < 1 µM; in test [4] it was < 1 µM.

As for `Nc1nc2cc(-c3ccc4ncc(N5CCN(C(=O)C6(N)CCC6)CC5)nc4c3)ccc2o1` [Compound 286], the IC50 in test [1] was < 1 µM; in test [2], < 0.1 µM; in test [3] it was < 1 µM; in test [4], < 0.1 µM.

Take `Nc1nc2cc(-c3ccc4ncc(N5CC(C(=O)N6CCN(CC7CC7)CC6)C5)nc4c3)ccc2o1` [Compound 287]: the IC50 in test [1] is < 10 µM; in test [2], < 0.1 µM; in test [3], < 1 µM; in test [4], < 1 µM.

For `Nc1nc2cc(-c3ccc4ncc(C(=O)NCCCN5CCOCC5)n4c3)ccc2o1` [Compound 288], the 50% inhibitory concentration (IC50) in test [1] is < 1 µM; in test [2], < 1 µM; in test [3] it was < 1 µM; in test [4], < 10 µM.

On to `Nc1nc2cc(-c3ccc4ncn(CCN5CCOCC5)c(=O)c4c3)ccc2o1` [Compound 289], for which the concentration for half-maximal inhibition (IC50) was < 10 µM in test [1], < 1 µM in test [2], > 10 µM in test [3] and < 1 µM in test [4].

As for `Nc1nc2cc(-c3ccc4ncn(CCCN5CCOCC5)c(=O)c4c3)ccc2o1` [Compound 290], the IC50 in test [1] is > 10 µM; in test [2] it was < 1 µM; in test [3] it was > 10 µM; in test [4], > 10 µM.

For the compound `CN1CCN(CCCn2cnc3ccc(-c4ccc5oc(N)nc5c4)cc3c2=O)CC1` [Compound 291], the IC50 is > 10 µM in test [1], < 1 µM in test [2], > 10 µM in test [3] and > 10 µM in test [4].

On to `CN(C)CCn1cnc2ccc(-c3ccc4oc(N)nc4c3)cc2c1=O` [Compound 292], for which the concentration for half-maximal inhibition (IC50) in test [1] is > 10 µM; in test [2] it was < 10 µM; in test [3], > 10 µM; in test [4], > 10 µM.

`Nc1nc2cc(-c3ccc4ncc(C(=O)NCCCN5CCCC5)n4c3)ccc2o1` [Compound 293]: the half-maximal inhibitory concentration (IC50) in test [1] is < 1 µM; in test [2], < 0.1 µM; in test [3], < 0.1 µM; in test [4], < 1 µM.

On to `CCN(CC)CCNC(=O)c1cnc2ccc(-c3ccc4oc(N)nc4c3)cn12` [Compound 295], for which the IC50 in test [1], in test [2], in test [3] and in test [4] was < 1 µM in each case.

Take `Cc1ccn(C2CCN(C(=O)c3cnc4ccc(-c5ccc6oc(N)nc6c5)cn34)CC2)n1` [Compound 297]: the IC50 in test [1] is > 10 µM; in test [2] it was < 1 µM; in test [3], > 10 µM; in test [4], < 10 µM.

On to `Nc1nc2cc(-c3ccc4ncc(N5CCN(C(=O)[C@H](N)CO)CC5)nc4c3)ccc2o1` [Compound 299], for which the half-inhibitory concentration (IC50) in test [1] is < 1 µM; in test [2], < 0.1 µM; in test [3], < 0.1 µM; in test [4] it was < 0.1 µM.

For `Nc1nc2ccc(-c3ccc4nnc(-c5cccnc5)n4c3)cc2o1` [Compound 301], the half-maximal inhibitory concentration (IC50) is < 10 µM in test [1], < 10 µM in test [2], > 10 µM in test [3] and > 10 µM in test [4].

With `CCN(CC)CCCNC(=O)c1cnc2ccc(-c3ccc4oc(N)nc4c3)cn12` [Compound 302], the 50% inhibitory concentration (IC50) in test [1] is < 10 µM; in test [2], < 1 µM; in test [3] it was < 0.1 µM; in test [4] it was < 10 µM.

With `Nc1nc2ccc(-c3ccc4nnc(C(=O)N5CCCC5)n4c3)cc2o1` [Compound 305], the IC50 in test [1] was > 10 µM; in test [2], < 10 µM; in test [3] it was > 10 µM; in test [4], > 10 µM.

With `C[C@H]1CN(c2cnc3ccc(-c4ccc5sc(N)nc5c4)cc3n2)CCN1` [Compound 307], the IC50 in test [1] was < 1 µM; in test [2], < 1 µM; in test [3] it was > 10 µM; in test [4] it was > 10 µM.

On to `C[C@H]1CN(c2cnc3ccc(-c4ccc5nc(N)oc5c4)cc3n2)CCN1` [Compound 309], for which the IC50 in test [1] is < 1 µM; in test [2] it was < 1 µM; in test [3], > 10 µM; in test [4] it was < 10 µM.

On to `C[C@H]1CN(c2cnc3ccc(-c4cccc5nc(N)oc45)cc3n2)CCN1` [Compound 310], for which the concentration for half-maximal inhibition (IC50) in test [1], in test [2], in test [3] and in test [4] was > 10 µM throughout.

For `Cc1nc(NC(=O)N2CCC[C@H]2C(N)=O)sc1-c1ccc2oc(N)nc2c1` [Compound 311], the half-inhibitory concentration (IC50) is > 10 µM in test [1], < 1 µM in test [2], > 10 µM in test [3] and > 10 µM in test [4].

For `CC(=O)Nc1nc(C)c(-c2ccc3oc(N)nc3c2)s1` [Compound 312], the concentration for half-maximal inhibition (IC50) was < 10 µM in test [1], < 1 µM in test [2], < 1 µM in test [3] and < 0.1 µM in test [4].

For the compound `Nc1nc2cc(-c3ccc4ncc(N5CC(N6CCCC6)C5)nc4c3)ccc2o1` [Compound 314], the IC50 in test [1] is < 10 µM; in test [2], < 1 µM; in test [3], < 10 µM; in test [4], < 10 µM.
